target: T1, SIRT1 (Homo sapiens, UniProt Q96EB6); test: Mass spectrometry based SIRT1 deacetylase activation assay (acetylated p53-derived peptide substrate); format: biochemical; settings: not given
T1 sequence (Q96EB6 1-747): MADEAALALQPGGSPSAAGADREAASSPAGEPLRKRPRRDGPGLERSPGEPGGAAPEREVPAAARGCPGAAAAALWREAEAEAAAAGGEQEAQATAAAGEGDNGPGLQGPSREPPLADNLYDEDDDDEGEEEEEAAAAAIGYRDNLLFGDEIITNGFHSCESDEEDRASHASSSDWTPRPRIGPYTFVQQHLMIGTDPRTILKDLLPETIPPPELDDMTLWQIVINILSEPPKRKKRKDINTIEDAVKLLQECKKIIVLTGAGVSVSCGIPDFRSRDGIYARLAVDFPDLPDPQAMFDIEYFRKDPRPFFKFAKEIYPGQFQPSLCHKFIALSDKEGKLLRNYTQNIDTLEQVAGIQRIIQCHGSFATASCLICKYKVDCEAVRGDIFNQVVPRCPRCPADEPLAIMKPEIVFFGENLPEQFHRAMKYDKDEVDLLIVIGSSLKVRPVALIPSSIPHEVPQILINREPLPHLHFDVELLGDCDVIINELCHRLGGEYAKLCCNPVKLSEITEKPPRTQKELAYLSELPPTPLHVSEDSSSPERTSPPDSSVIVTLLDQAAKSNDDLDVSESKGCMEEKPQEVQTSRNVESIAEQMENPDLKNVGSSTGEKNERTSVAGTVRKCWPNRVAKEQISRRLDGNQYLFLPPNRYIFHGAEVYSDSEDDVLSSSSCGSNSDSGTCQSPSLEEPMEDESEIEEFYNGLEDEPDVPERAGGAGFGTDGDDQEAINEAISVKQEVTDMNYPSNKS

Row | SMILES | EC1.5 | Fold Act. (percent maximum fold activation)
1 | Cc1nc(C)c(-c2nc3c(C(=O)Nc4cccnc4)cccc3[nH]2)s1 [Compound 319] | A (EC1.5<1.0 uM) | A (Fold activation >200%)
2 | Cc1cnc(NC(=O)c2cccc3[nH]c(-c4ccccc4C(F)(F)F)nc23)s1 [Compound 343] | A (EC1.5<1.0 uM) | A (Fold activation >200%)
3 | Cc1cnc(NC(=O)c2cccc3[nH]c(-c4cc(F)ccc4C(F)(F)F)nc23)s1 [Compound 376] | A (EC1.5<1.0 uM) | A (Fold activation >200%)
4 | Cc1cc(NC(=O)c2cccc3[nH]c(-c4ccc(Cl)cc4C(F)(F)F)nc23)n(C)n1 [Compound 356] | A (EC1.5<1.0 uM) | A (Fold activation >200%)

Continued, values first:

Row | EC1.5 | Fold Act. (percent maximum fold activation) | SMILES
5 | B (EC1.5 1-25 uM) | A (Fold activation >200%) | O=C(Nc1cccnc1)c1cccc2[nH]c(-c3ccnc(N4CCCCC4)c3)nc12 [Compound 373]
6 | A (EC1.5<1.0 uM) | A (Fold activation >200%) | O=C(Nc1cnccn1)c1cccc2[nH]c(-c3cccc(OC(F)(F)F)c3)nc12 [Compound 205]
7 | B (EC1.5 1-25 uM) | A (Fold activation >200%) | O=C(Nc1nc2ccccc2s1)c1cccc2[nH]c(-c3cccc(C(F)(F)F)c3)nc12 [Compound 284]
8 | B (EC1.5 1-25 uM) | A (Fold activation >200%) | O=C(Nc1nccs1)c1cccc2[nH]c(-c3cc(F)cc(Cl)c3)nc12 [Compound 220]
9 | A (EC1.5<1.0 uM) | A (Fold activation >200%) | Cc1cnc(NC(=O)c2cccc3[nH]c(-c4cccc(N5CCOCC5)c4)nc23)s1 [Compound 396]
10 | B (EC1.5 1-25 uM) | A (Fold activation >200%) | O=C(Nc1nccs1)c1cccc2[nH]c(-c3cccnc3N3CCNCC3)nc12 [Compound 282]
11 | B (EC1.5 1-25 uM) | A (Fold activation >200%) | O=C(Nc1cccc2[nH]c(-c3cccc(N4CCOCC4)c3)nc12)c1cnccn1 [Compound 388]
12 | B (EC1.5 1-25 uM) | A (Fold activation >200%) | O=C(Nc1nccs1)c1cccc2[nH]c(-c3cccc(OCCN4CCOCC4)c3)nc12 [Compound 347]

same assay, conditions: 0.5 μM peptide substrate, 120 μM βNAD+, 10 nM SIRT1, 25 min at 25° C.

Row | Fold Act. (percent maximum fold activation) | SMILES
13 | A (Fold activation >200%) | O=C(Nc1ccccn1)c1cccc2[nH]c(-c3ccnc(N4CCCC4)c3)nc12 [Compound 540]
14 | A (Fold activation >200%) | O=C(Nc1cccc(OCC(O)CO)c1)c1cccc2[nH]c(-c3ccccc3C(F)(F)F)nc12 (stereo not drawn) [Compound 478]
15 | B (Fold Activation <200%) | O=C(Nc1nccs1)c1cccc2[nH]c(-c3ccccc3OCCN3CC[C@H](F)C3)nc12 [Compound 509]

same assay, conditions: 0.5 μM peptide substrate, 120 μM βNAD+, 10 nM SIRT1, 25 min at 25° C., read-out: EC1.5

Row | EC1.5 | SMILES
16 | < 1000 nM | O=C(Nc1ccccn1)c1cccc2[nH]c(-c3ccnc(N4CCCC4)c3)nc12 [Compound 540]
17 | < 1000 nM | O=C(Nc1cccc(OCC(O)CO)c1)c1cccc2[nH]c(-c3ccccc3C(F)(F)F)nc12 (stereo not drawn) [Compound 478]
18 | < 1000 nM | O=C(Nc1nccs1)c1cccc2[nH]c(-c3ccccc3OCCN3CC[C@H](F)C3)nc12 [Compound 509]

same assay, conditions: 0.5 μM peptide substrate, 120 μM βNAD+, 10 nM SIRT1, 25 minutes at 25° C.

Row | SMILES | EC1.5 | Fold Act. (percent maximum fold activation)
19 | O=C(Nc1cccc(OC[C@@H](O)CO)c1)c1cccc2[nH]c(-c3ccccc3C(F)(F)F)nc12 [Compound 725, (S)-N-(3-(2,3-dihydroxypropoxy)phenyl)-2-(2-(trifluoromethyl)phenyl)-1H-benzo[d]imidazole-4-carboxamide] | A (EC1.5<1.0 uM) | A (Fold activation >200%)
20 | Cc1cnc(NC(=O)c2cccc3[nH]c(-c4ccc(OC[C@H](O)CO)cc4C(F)(F)F)nc23)s1 [Compound 743] | A (EC1.5<1.0 uM) | A (Fold activation >200%)
21 | Cc1cc(OC[C@H](O)CO)ccc1-c1nc2c(C(=O)Nc3nccs3)cccc2[nH]1 [Compound 793] | A (EC1.5<1.0 uM) | A (Fold activation >200%)
22 | O=C(Nc1cccc(OCC(O)CO)c1)c1cccc2[nH]c(-c3cc(F)ccc3C(F)(F)F)nc12 (stereo not drawn) [Compound 741] | A (EC1.5<1.0 uM) | A (Fold activation >200%)
23 | Cc1cnc(NC(=O)c2cc(F)cc3nc(-c4ccccc4C(F)F)[nH]c23)s1 [Compound 833] | A (EC1.5<1.0 uM) | A (Fold activation >200%)
24 | O=C(Nc1cccc(OCC(O)CO)c1)c1cccc2[nH]c(-c3ccc(Cl)cc3C(F)(F)F)nc12 (stereo not drawn) [Compound 740] | A (EC1.5<1.0 uM) | A (Fold activation >200%)
25 | O=C(Nc1cccnn1)c1cc(N2CCOCC2)cc2[nH]c(-c3ccc(F)cc3C(F)(F)F)nc12 [Compound 692] | A (EC1.5<1.0 uM) | A (Fold activation >200%)
26 | O=C(Nc1nccs1)c1cc(F)cc2nc(-c3cc(F)ccc3C(F)F)[nH]c12 [Compound 835] | A (EC1.5<1.0 uM) | A (Fold activation >200%)
27 | Cc1nc(C)c(-c2nc3c(C(=O)Nc4ccc(OC[C@@H](O)CO)cc4)cccc3[nH]2)s1 [Compound 789] | A (EC1.5<1.0 uM) | A (Fold activation >200%)
28 | O=C(Nc1nccs1)c1cccc2[nH]c(-c3cnccc3C(F)(F)F)nc12 [Compound 702] | A (EC1.5<1.0 uM) | A (Fold activation >200%)
29 | O=C(Nc1nc(CN2CCOCC2)cs1)c1cccc2[nH]c(-c3ccc(F)cc3C(F)F)nc12 [Compound 846] | A (EC1.5<1.0 uM) | A (Fold activation >200%)

Second part, the compound after the results:

Row | EC1.5 | Fold Act. (percent maximum fold activation) | SMILES
30 | A (EC1.5<1.0 uM) | A (Fold activation >200%) | O=C(Nc1ccccn1)c1cc(N2CCOCC2)cc2[nH]c(-c3cc(F)ccc3C(F)F)nc12 [Compound 769]
31 | A (EC1.5<1.0 uM) | A (Fold activation >200%) | O=C(Nc1ccc(OC[C@H](O)CO)cc1)c1cccc2[nH]c(-c3cccnc3)nc12 [Compound 797]
32 | B (EC1.5 1-25 uM) | A (Fold activation >200%) | O=C(Nc1nccs1)c1cccc2[nH]c(-c3cc(CN4CCCC4)ccc3C(F)(F)F)nc12 [Compound 871, 2-(5-(pyrrolidin-1-ylmethyl)-2-(trifluoromethyl)phenyl)-N-(thiazol-2-yl)-1H-benzo[d]imidazole-4-carboxamide]
33 | A (EC1.5<1.0 uM) | A (Fold activation >200%) | O=C(Nc1cccnn1)c1cc(N2CCOCC2)cc2[nH]c(-c3ccccc3C(F)F)nc12 [Compound 737]
34 | A (EC1.5<1.0 uM) | A (Fold activation >200%) | O=C(Nc1cccnc1)c1cccc2[nH]c(-c3ccc(N4CCCC4)cc3C(F)F)nc12 [Compound 774]
35 | A (EC1.5<1.0 uM) | A (Fold activation >200%) | Cc1ccc(-c2nc3c(C(=O)Nc4nc(CN5CCOCC5)cs4)cccc3[nH]2)cn1 [Compound 843]
36 | A (EC1.5<1.0 uM) | A (Fold activation >200%) | O=C(Nc1nccs1)c1cccc2[nH]c(-c3ccc(CN4CCCC4)cc3C(F)(F)F)nc12 [Compound 828, 2-(4-(pyrrolidin-1-ylmethyl)-2-(trifluoromethyl)phenyl)-N-(thiazol-2-yl)-1H-benzo[d]imidazole-4-carboxamide]
